Results taken from patent US20200253211A1, “PHOTODYNAMIC INHIBITION OF MICROBIAL PATHOGENS IN PLANTS” (SUNCOR ENERGY INC, priority 2017, published 2020).

What was measured:
Assay type in all cases: cell-based
Sclerotinia homoeocarpa [1] = assay: Radial growth of dollar spot fungus after treatment of plugs in PBS (24 well plates), dark vs light
Procedure: In this example, control of dollar spot fungus (Sclerotinia homoeocarpa) with chlorins combined with a chelating agent was assessed. Treatments were prepared in Phosphate Buffered Saline (PBS) in 24 well plates (in duplicates for light vs. dark incubation) at desired concentrations. Then, a 5 mm diameter plug of a Sclerotinia homoeocarpa isolate (3 isolates total tested) was inoculated into the PBS and incubated at 21° C. in the dark for 2 hours. After 2 hours, one of the 24 well plates (with isolates in triplicate) is left in the dark and one 24 well plate is placed under illumination for 1 hour (all at 21° C.). Following illumination, fungal plugs are removed from PBS, blotted dry on sterile filter paper and transferred to non-amended Potato Dextrose Agar (PDA). Radial growth of the fungus is monitored daily until the growth of S. homoeocarpa reaches the edge of the Petri-dish. Illumination is provided by LED lights emitting about 1000 μmol/m^2/s photosynthetically active radiation (PAR). In this example, control of dollar spot fungus (Sclerotinia homoeocarpa) with Zinc Protoporphyrin IX (Zn-PPIX) combined with EDTA was assessed. Treatments were prepared in Phosphate Buffered Saline (PBS) in 24 well plates (in duplicates for light vs. dark incubation) at desired concentrations. Then, a 5 mm diameter plug of a Sclerotinia homoeocarpa isolate (3 isolates total tested) was inoculated into the PBS and incubated at 21° C. in the dark for 2 hours. After 2 hours, one of the 24 well plates (with isolates in triplicate) is left in the dark and one 24 well plate is placed under illumination for 1 hour (all at 21° C.). Following illumination, fungal plugs are removed from PBS, blotted dry on sterile filter paper and transferred to non-amended Potato Dextrose Agar (PDA). Radial growth of the fungus is monitored daily until the growth of S. homoeocarpa reaches the edge of the Petri-dish. Illumination is provided by LED lights emitting about 1000 μmol/m^2/s photosynthetically active radiation (PAR). In this example, control of dollar spot fungus (Sclerotinia homoeocarpa) with bacteriochlorin combined with EDTA was assessed. Treatments were prepared in Phosphate Buffered Saline (PBS) in 24 well plates (in duplicates for light vs. dark incubation) at desired concentrations. Then, a 5 mm diameter plug of a Sclerotinia homoeocarpa isolate (3 isolates total tested) was inoculated into the PBS and incubated at 21° C. in the dark for 2 hours. After 2 hours, one of the 24 well plates (with isolates in triplicate) is left in the dark and one 24 well plate is placed under illumination for 1 hour (all at 21° C.). Following illumination, fungal plugs are removed from PBS, blotted dry on sterile filter paper and transferred to non-amended Potato Dextrose Agar (PDA). Radial growth of the fungus is monitored daily until the growth of S. homoeocarpa reaches the edge of the Petri-dish. Illumination is provided by LED lights emitting about 1000 μmol/m^2/s photosynthetically active radiation (PAR). In this example, control of dollar spot fungus (Sclerotinia homoeocarpa) with Aluminum chlorin e6 combined with EDTA was assessed. Treatments were prepared in Phosphate Buffered Saline (PBS) in 24 well plates (in duplicates for light vs. dark incubation) at desired concentrations. Then, a 5 mm diameter plug of a Sclerotinia homoeocarpa isolate (3 isolates total tested) was inoculated into the PBS and incubated at 21° C. in the dark for 2 hours. After 2 hours, one of the 24 well plates (with isolates in triplicate) is left in the dark and one 24 well plate is placed under illumination for 1 hour (all at 21° C.). Following illumination, fungal plugs are removed from PBS, blotted dry on sterile filter paper and transferred to non-amended Potato Dextrose Agar (PDA). Radial growth of the fungus is monitored daily until the growth of S. homoeocarpa reaches the edge of the Petri-dish. Illumination is provided by LED lights emitting about 1000 μmol/m^2/s photosynthetically active radiation (PAR). […]

Sclerotinia homoeocarpa [2] = assay: Radial growth of dollar spot fungus on amended Potato Dextrose Agar, dark vs light; conditions: for inhibition at 500 µM / inhibition at 1000 µM / inhibition at 2000 µM: Clarireedia homoeocarpa
E. Coli K-12 = assay: E. Coli assay under LED lamps, colony count; conditions: Table 11; light; 5 mM Baypure CX
Procedure: Regarding the E. Coli assay tests in the above examples, the following procedure was used: • 1. E. Coli K-12 inoculated in 5 mL TSB and placed in a shaking incubator overnight. • 2. Dilute culture in 500 mL PBS (˜10̂8 CFU/mL) and placed in shaking incubator for 30 minutes at […]. • 3.15 mL samples created using 12 mL culture and a mixture of PBS buffer and sample compounds. • 4. Placed under LED lamps for 2 hours (40 W/m^2). • 5. Samples diluted to 10^−4 and culture controls diluted to 10^−5 for plating through series dilutions. • 6. 0.1 mL plated of each sample in triplicates on TSA base (10^−3 and 10^−4 for samples. 10^−4 and 10^−5 for controls). • 7. Incubated overnight at 37° C. • 8. Colonies counted next morning and recorded.

[3] = Table 22A, dark, rate 10 μM, growth between 48 and 72 hours
[4] = Table 22B, light, rate 10 μM, growth between 48 and 72 hours
[5] = Table 16B, light, Chlorin Rate 5 μM
[6] = Table 16B, light, Chlorin Rate 10 μM
[7] = Table 16B, light, Chlorin Rate 31 μM
[8] = Table 17D, light, rate 31.62 μM
[9] = Table 17D, light, rate 316.2 μM

Molecule: CC1=C(CCC(=O)O)c2cc3[nH]c(cc4nc(cc5[nH]c(cc1n2)c(C(C)O)c5C)C(C(C)O)=C4C)c(C)c3CCC(=O)O.Cl.Cl (stereo not shown) [Hematoporphyrin IX dichloride (HemIX), hematoporphyrin IX dichloride]
- % Inhibition (Sclerotinia homoeocarpa [1]; [3]): −5.45%
- Mean Radial Growth (Sclerotinia homoeocarpa [1]; [3]): 15.06 mm
- % Inhibition (Sclerotinia homoeocarpa [1]; [4]): 38.87%
- Mean Radial Growth (Sclerotinia homoeocarpa [1]; [4]): 8.39 mm

Molecule: Aluminum chlorin e6 [AlCe6]
- % Inhibition (Sclerotinia homoeocarpa [1]; Table 21A, dark, rate 1 μM): −4%
- Mean Radial Growth (Sclerotinia homoeocarpa [1]; Table 21A, dark, rate 1 μM): 13 mm
- % Inhibition (Sclerotinia homoeocarpa [1]; Table 21A, dark, rate 10 μM): −5.33%
- Mean Radial Growth (Sclerotinia homoeocarpa [1]; Table 21A, dark, rate 10 μM): 13.17 mm
- % Inhibition (Sclerotinia homoeocarpa [1]; Table 21B, light, rate 1 μM): −2.18%
- Mean Radial Growth (Sclerotinia homoeocarpa [1]; Table 21B, light, rate 1 μM): 13 mm
- % Inhibition (Sclerotinia homoeocarpa [1]; Table 21B, light, rate 10 μM): 62.45%
- Mean Radial Growth (Sclerotinia homoeocarpa [1]; Table 21B, light, rate 10 μM): 4.78 mm
- % Inhibition (Sclerotinia homoeocarpa [2]; Table 16A, dark, rate 5 μM): 1.85%
- Mean Radial Growth (Sclerotinia homoeocarpa [2]; Table 16A, dark, rate 5 μM): 13.8 mm
- % Inhibition (Sclerotinia homoeocarpa [2]; Table 16A, dark, rate 10 μM): 3.70%
- Mean Radial Growth (Sclerotinia homoeocarpa [2]; Table 16A, dark, rate 10 μM): 13.0 mm
- % Inhibition (Sclerotinia homoeocarpa [2]; Table 16A, dark, rate 31 μM): 3.09%
- Mean Radial Growth (Sclerotinia homoeocarpa [2]; Table 16A, dark, rate 31 μM): 13.1 mm
- % Inhibition (Sclerotinia homoeocarpa [2]; [5]): 11.0%
- Mean Radial Growth (Sclerotinia homoeocarpa [2]; [5]): 11.4 mm
- % Inhibition (Sclerotinia homoeocarpa [2]; [6]): 41.6%
- Mean Radial Growth (Sclerotinia homoeocarpa [2]; [6]): 7.5 mm
- % Inhibition (Sclerotinia homoeocarpa [2]; [7]): 100.0%
- Mean Radial Growth (Sclerotinia homoeocarpa [2]; [7]): 0.0 mm

Molecule: C=Cc1c(C)c2cc3nc(c(CC(=O)O)c4[n-]c(cc5nc(cc1[n-]2)C(C)=C5CC)c(C)c4C(=O)O)C(CCC(=O)O)C3C.[Zn+2] (stereo not shown) [ZnCe6]
- % Inhibition (Sclerotinia homoeocarpa [2]; Table 16A, dark, rate 5 μM): 2.47%
- Mean Radial Growth (Sclerotinia homoeocarpa [2]; Table 16A, dark, rate 5 μM): 13.2 mm
- % Inhibition (Sclerotinia homoeocarpa [2]; Table 16A, dark, rate 10 μM): 7.41%
- Mean Radial Growth (Sclerotinia homoeocarpa [2]; Table 16A, dark, rate 10 μM): 12.5 mm
- % Inhibition (Sclerotinia homoeocarpa [2]; Table 16A, dark, rate 31 μM): 23.46%
- Mean Radial Growth (Sclerotinia homoeocarpa [2]; Table 16A, dark, rate 31 μM): 10.3 mm
- % Inhibition (Sclerotinia homoeocarpa [2]; [5]): 10.4%
- Mean Radial Growth (Sclerotinia homoeocarpa [2]; [5]): 11.5 mm
- % Inhibition (Sclerotinia homoeocarpa [2]; [6]): 21.4%
- Mean Radial Growth (Sclerotinia homoeocarpa [2]; [6]): 10.1 mm
- % Inhibition (Sclerotinia homoeocarpa [2]; [7]): 41.6%
- Mean Radial Growth (Sclerotinia homoeocarpa [2]; [7]): 7.5 mm

Molecule: O=C(O)CC(NC(CC(=O)O)C(=O)O)C(=O)O (stereo not shown) [Baypure CX (IDS), tetrasodium iminodisuccinate]
- inhibition at 500 µM (Sclerotinia homoeocarpa [2]; Table 14A, dark, rate 500 μM): 6.2%
- inhibition at 1000 µM (Sclerotinia homoeocarpa [2]; Table 14A, dark, rate 1000 μM): 15.2%
- inhibition at 2000 µM (Sclerotinia homoeocarpa [2]; Table 14A, dark, rate 2000 μM): 31.3%
- inhibition at 500 µM (Sclerotinia homoeocarpa [2]; Table 14B, light, rate 500 μM): 8.6%
- inhibition at 1000 µM (Sclerotinia homoeocarpa [2]; Table 14B, light, rate 1000 μM): 18%
- inhibition at 2000 µM (Sclerotinia homoeocarpa [2]; Table 14B, light, rate 2000 μM): 30.9%
- Mean Radial Growth (Sclerotinia homoeocarpa [2]; Table 14A, dark, rate 500 μM): 12.7 mm
- Mean Radial Growth (Sclerotinia homoeocarpa [2]; Table 14A, dark, rate 1000 μM): 11.4 mm
- Mean Radial Growth (Sclerotinia homoeocarpa [2]; Table 14A, dark, rate 2000 μM): 9.3 mm
- Mean Radial Growth (Sclerotinia homoeocarpa [2]; Table 14B, light, rate 500 μM): 11.8 mm
- Mean Radial Growth (Sclerotinia homoeocarpa [2]; Table 14B, light, rate 1000 μM): 10.6 mm
- Mean Radial Growth (Sclerotinia homoeocarpa [2]; Table 14B, light, rate 2000 μM): 8.9 mm
- % Inactivation (E. Coli K-12): 67.8%
- CFU/mL (E. Coli K-12): 2.09E+06 CFU/mL
- LogCFU/mL (E. Coli K-12): 6.32 LogCFU/mL

Molecule: C=Cc1c(C)c2cc3nc(c(CC(=O)[O-])c4[n-]c(cc5nc(cc1[n-]2)C(C)=C5CC)c(C)c4C(=O)[O-])C(CCC(=O)[O-])C3C.[Cu+2].[Na+].[Na+].[Na+] (stereo not shown) [Cu Chlorophyllin (CuChln), Cu chlorophyllin, reference compound]
- % Inhibition (Sclerotinia homoeocarpa [2]; Table 17C, dark, rate 31.62 μM): −3.13%
- Mean Radial Growth (Sclerotinia homoeocarpa [2]; Table 17C, dark, rate 31.62 μM): 14.30 mm
- % Inhibition (Sclerotinia homoeocarpa [2]; Table 17C, dark, rate 100 μM): −3.37%
- Mean Radial Growth (Sclerotinia homoeocarpa [2]; Table 17C, dark, rate 100 μM): 14.33 mm
- % Inhibition (Sclerotinia homoeocarpa [2]; Table 17C, dark, rate 316.2 μM): −5.29%
- Mean Radial Growth (Sclerotinia homoeocarpa [2]; Table 17C, dark, rate 316.2 μM): 14.60 mm
- % Inhibition (Sclerotinia homoeocarpa [2]; Table 17C, dark, rate 1000 μM): −3.85%
- Mean Radial Growth (Sclerotinia homoeocarpa [2]; Table 17C, dark, rate 1000 μM): 14.40 mm
- % Inhibition (Sclerotinia homoeocarpa [2]; [8]): −18.93%
- Mean Radial Growth (Sclerotinia homoeocarpa [2]; [8]): 14.03 mm
- % Inhibition (Sclerotinia homoeocarpa [2]; Table 17D, light, rate 100 μM): −20.34%
- Mean Radial Growth (Sclerotinia homoeocarpa [2]; Table 17D, light, rate 100 μM): 14.20 mm
- % Inhibition (Sclerotinia homoeocarpa [2]; [9]): −26.55%
- Mean Radial Growth (Sclerotinia homoeocarpa [2]; [9]): 14.93 mm
- % Inhibition (Sclerotinia homoeocarpa [2]; Table 17D, light, rate 1000 μM): −28.81%
- Mean Radial Growth (Sclerotinia homoeocarpa [2]; Table 17D, light, rate 1000 μM): 15.20 mm
